According to patent US20160243051A1, “MONO DISPERSE POLYMER NANOPARTICLES, FUNCTIONALIZED NANOPARTICLES AND CONTROLLED FORMATION METHOD” (THE CURATORS OF THE UNIVERSITY OF MISSOURI, priority 2013, published 2016):

Experiment: Near infrared whole body florescent imaging, IVIS in-vivo imaging system
Conditions: nude mice, 100 μl injected once, 0.15 mg/ml ICG
Procedure: Near Infrared based florescent imaging was carried out in nude mice through IVIS in-vivo imaging system. Briefly, 100 μl of samples of free ICG solution (0.15 mg/ml), PMMA-COOH (0.15 mg/ml of ICG present in nanoparticles) and Pegylated nanoparticles containing ICG (0.15 mg/ml) were injected once and their florescence were recorded at various time points as shown in FIGS. 8A-8C. […] There are three possible reasons for florescence quenching; namely, (i) degradation of free ICG physiological conditions, or (ii) rapid clearance of free ICG from the body, or (iii) a combination of both processes.

time within which florescence diminished: ≤ 6 h
time within which florescence was completely reduced to almost zero: ≤ 24 h
SMILES: CC1(C)C(/C=C/C=C/C=C/C=C2\N(CCCCS(=O)(=O)O)c3ccc4ccccc4c3C2(C)C)=[N+](CCCCS(=O)(=O)[O-])c2ccc3ccccc3c21 [free ICG, indocyanine green]
